The target in experiment [1] is T1, Human immunodeficiency virus type 1 integrase (Human immunodeficiency virus 1, UniProt Q7ZJM1). Description: Inhibition of HIV-1 integrase catalytic activity incubated for 1 hrs in absence of LEDGF/p75 by HTRF assay.
The target of experiment [2] is Human immunodeficiency virus type 1 integrase (Human immunodeficiency virus 1) (UniProt Q7ZJM1). Description: (§1) Inhibition of HIV1 integrase activity by measuring multimerization of His-tagged integrase/FLAG-tagged integrase incubated for 3 hrs by […] HTRF assay.
Experiment [3] can be described thus: Inhibition of His-tagged HIV-1 integrase/FLAG-tagged LEDGF (unknown origin) protein-protein interaction preincubated with integrase for 30 mins followed by LEDGF/p75 addition and measured after overnight incubation by HTRF assay. A general note: TR-FRET usually uses a lanthanide donor and a delayed reading to cut background.
Experiment [4] relates to Human immunodeficiency virus 1. Description: (§2) Inhibition of 6His-tagged recombinant HIV-1 integrase/biotinylated HIV-1 transactivation response element RNA interaction assessed as […] preincubated with integrase for 2 hrs followed by RNA addition and measured after 1 hrs by ALPHAscreen based AlphaLISA. The following applies: time 3.0 hrs. In general terms: Alpha assays give light when donor and acceptor beads are brought close together.

A short description of experiment [5]: as §2. On the set-up: species or system Human immunodeficiency virus 1.
Experiment [6] has as its system Human immunodeficiency virus 1. Description: Antiviral activity against VSV-G pseudotyped HIV-1 NL4.3 (isolated from HEK293T cells viral stock supernatant) infected in human MT4 cells assessed as inhibition of early stage viral replication preincubated for 3 to 4 hrs in presence of polybrene followed by fresh media replacement with compound and measured after 48 hrs by flow cytometric analysis. Format: functional, organism-based. The following applies: Human immunodeficiency virus 1, NL4.3, MT4. For orientation: Flow cytometry measures light scatter and fluorescence of single cells or particles in a stream.

For experiment [7], the system named is Human immunodeficiency virus 1. Nature of the experiment: Antiviral activity against VSV-G pseudotyped HIV-1 NL4.3 (isolated from compound pretreated HEK293T cells viral stock supernatant) infected in human MT4 cells assessed as inhibition of late stage viral replication preincubated for 3 to 4 hrs in presence of polybrene followed by fresh media replacement with compound and measured after 48 hrs by flow cytometric analysis. It counts as functional, organism-based. The following applies: time 51-52 hrs.

The test system of experiment [8] is Human immunodeficiency virus 1. Description: Antiviral activity against VSV-G pseudotyped HIV-1 NL4.3 (isolated from HEK293T cells viral stock supernatant) infected in human MT4 cells assessed as inhibition of early stage viral replication preincubated for 3 to 4 hrs in presence of polybrene followed by fresh media replacement with compound and measured after 48 hrs by flow cytometric analysis relative to control. Format: functional. As to conditions: time 51-52 hrs.

Experiment [9] has as its target T1, Human immunodeficiency virus type 1 integrase. Described as §1.
Experiment [10] deals with Human immunodeficiency virus 1. Nature of the experiment: Antiviral activity against VSV-G pseudotyped HIV-1 NL4.3 (isolated from compound pretreated HEK293T cells viral stock supernatant) infected in human MT4 cells assessed as inhibition of late stage viral replication at 25 microM preincubated for 3 to 4 hrs in presence of polybrene followed by fresh media replacement with compound and measured after 48 hrs by flow cytometric analysis relative to …. It counts as functional. As to conditions: Human immunodeficiency virus 1, NL4.3, MT4, time 51-52 hrs.

Activity calls are given as the source filed them. The calls are words filed in the database; no cut-off is given here.

The IC50 is the concentration needed to halve the response being measured. One may read the inhibition as how much of the control response was suppressed. By EC50 is commonly meant the concentration giving half of the maximal effect.

Chain of Human immunodeficiency virus type 1 integrase (Human immunodeficiency virus 1) (Q7ZJM1 as listed by the source): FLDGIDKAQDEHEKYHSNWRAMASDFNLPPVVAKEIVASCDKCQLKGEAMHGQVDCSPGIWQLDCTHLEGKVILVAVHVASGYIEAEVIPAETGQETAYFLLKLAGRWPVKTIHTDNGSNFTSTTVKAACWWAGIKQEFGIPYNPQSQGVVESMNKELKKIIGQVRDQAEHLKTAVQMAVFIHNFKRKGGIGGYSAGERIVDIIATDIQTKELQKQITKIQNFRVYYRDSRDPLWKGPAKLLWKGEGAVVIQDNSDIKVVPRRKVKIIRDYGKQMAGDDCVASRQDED
T1 sequence (Q7ZJM1 whole entry): as the sequence (Q7ZJM1 as listed by the source) above

With `CCOC(=O)/C(O)=C/C(=O)c1cn(Cc2ccc(F)cc2)c2ccc(C(=O)c3ccc(C(=O)OCC)cc3)cc2c1=O`, the concentration for half-maximal inhibition (IC50) in experiment [1] was determined as 741 nM. Further, the inhibition result in experiment [2] and in experiment [4] was “Active” each time. In experiment [3], the inhibition entry is “inactive”.
For the compound `CN(C)c1cc2c(cc1C(=O)/C=C(\O)C(=O)O)c(=O)c(C(=O)/C=C(\O)C(=O)O)cn2Cc1ccc(F)cc1`, the IC50 in experiment [1] was 181 nM; in experiment [5], 750 nM. Besides, the inhibition entry in experiment [2] is “Active”. Besides, the inhibition entry in experiment [3] is “inactive”. Moreover, the 50% effective concentration (EC50) in [6] is more than 6250 nM. Moreover, the result in experiment [7] was inactive. The “inhibition (INH)” value in [8] was 38%.
On to `CCOC(=O)/C(O)=C/C(=O)c1cc2c(=O)c(C(=O)/C=C(\O)C(=O)OCC)cn(Cc3ccc(F)cc3)c2cc1N1CCN(C)CC1`, for which the IC50 turned out to be 782 nM in [1] and 4190 nM in experiment [5]. Moreover, in [2], the inhibition result was “Active”. Besides, the inhibition result in [3] was “inactive”.
For the compound `O=C(O)/C(O)=C/C(=O)c1cn(Cc2ccc(F)cc2)c2ccc(C(=O)c3ccc(C(=O)O)cc3)cc2c1=O`, the IC50 in experiment [1] was 77 nM; in experiment [5] it was 1570 nM. Further, the inhibition result in experiment [2] was “Active”. Besides, in experiment [3], the inhibition result was “inactive”.
The compound `O=C(O)c1cn(Cc2ccc(F)cc2)c2ccc(Oc3ccccc3)cc2c1=O` returned a concentration for half-maximal inhibition (IC50) in experiment [1] of more than 200000 nM. Also, the inhibition entry in [2] and in [4] was “Active” in each case. Also, the inhibition result in experiment [3] was “inactive”.
Consider `O=C(O)/C(O)=C/C(=O)c1ccc2[nH]cc(C(=O)/C=C(\O)C(=O)O)c(=O)c2c1`, for which the figures for the IC50 in experiment [1] and in experiment [5] were 3140 nM and 1330 nM, respectively. Besides, the inhibition result in experiment [2] and in experiment [3] was “Active” in each case.
In [1], `CCOC(=O)c1cn(Cc2ccc(F)cc2)c2ccc(OCc3cccc4ccccc34)cc2c1=O` displayed an IC50 of 41900 nM. Moreover, in [9], the EC50 is more than 200000 nM. The inhibition result in [3] is “inactive”. Further, the inhibition entry in experiment [4] is “Active”.
With `O=C(O)c1cn(Cc2ccc(F)cc2)c2ccc(OCc3ccc(OCc4ccccc4)cc3)cc2c1=O`, in experiment [1], inhibition was half-maximal at 6280 nM (IC50). Moreover, in experiment [9], the 50% effective concentration (EC50) was more than 2000 nM. The inhibition entry in experiment [3] is “inactive”. Also, in experiment [4], the inhibition entry was “Active”.
For `CCOC(=O)c1cn(Cc2ccc(F)cc2)c2ccc(OCc3ccc(OCc4ccccc4)cc3)cc2c1=O`, the IC50 in experiment [1] was more than 200000 nM. In addition, the inhibition entry in experiment [2] and in experiment [4] was “Active” throughout. For the same compound, the inhibition result in [3] is “inactive”.
Compound `O=C(O)c1cn(Cc2ccc(F)cc2)c2ccc(OCc3cccc4ccccc34)cc2c1=O` had an IC50 in [1] of 36500 nM. In experiment [9], this compound showed an EC50 of more than 200000 nM. Also, in experiment [3], the inhibition entry is “inactive”. In experiment [4], the inhibition result was “Active”.
In experiment [1], `O=C(O)c1cn(Cc2ccc(F)cc2)c2ccc(OCc3ccc(F)cc3)cc2c1=O` yielded an IC50 of more than 200000 nM. The inhibition result in [2] and in experiment [3] was “inactive” in each case. For the same compound, the inhibition entry in [4] is “Active”.
Take `CCOC(=O)/C(O)=C/C(=O)c1ccc2[nH]cc(C(=O)/C=C(\O)C(=O)OCC)c(=O)c2c1`: the IC50 amounted to 2340 nM in [1] and 2220 nM in experiment [5]. Besides, the inhibition result in experiment [2] and in experiment [3] was “Active” in each case.
Take `O=C(O)/C(O)=C/C(=O)c1ccc2c(c1)c(=O)c(C(=O)/C=C(\O)C(=O)O)cn2Cc1ccc(F)cc1`: the inhibition entry in [2] and in [3] was “Active” throughout. Also, the IC50 in [5] was 840 nM. In addition, the EC50 in [6] is 2270 nM. In addition, the inhibition at 25 µM in [10] is 40%.
For the compound `CCOC(=O)/C(O)=C/C(=O)c1cc2c(=O)c(C(=O)/C=C(\O)C(=O)OCC)cn(Cc3ccc(F)cc3)c2cc1N(C)C`, the concentration for half-maximal inhibition (IC50) in experiment [1] was 480 nM; in experiment [5] it was 1040 nM. For the same compound, the EC50 in experiment [9] is more than 200000 nM; in experiment [6], more than 6250 nM. Further, the inhibition entry in experiment [3] is “inactive”. Besides, in experiment [7], the outcome was inactive. Besides, the “inhibition (INH)” value in [8] was 50%.
Regarding `CCOC(=O)/C(O)=C/C(=O)c1ccc2c(c1)c(=O)c(C(=O)/C=C(\O)C(=O)OCC)cn2Cc1ccc(F)cc1`, the IC50 was determined as 800 nM in experiment [1] and 1980 nM in experiment [5]. The inhibition entry in [2] is “Active”. In addition, the inhibition entry in experiment [3] was “inactive”.
